Reference: article PMC11214487, “YZL-51N functions as a selective inhibitor of SIRT7 by NAD^+ competition to impede DNA damage repair” (iScience, 2024)

Key:
SIRT7 [1] = biological target: T1, SIRT7 (Homo sapiens, UniProt Q9NRC8); test: Fluor de Lys (FDL) SIRT7 deacetylase assay; format: biochemical
T1 construct: His-tagged full length SIRT7 protein expression from BL21 bacterial cells; His; made in house; host or cells: E. coli BL21
T1 sequence (Q9NRC8 1-400): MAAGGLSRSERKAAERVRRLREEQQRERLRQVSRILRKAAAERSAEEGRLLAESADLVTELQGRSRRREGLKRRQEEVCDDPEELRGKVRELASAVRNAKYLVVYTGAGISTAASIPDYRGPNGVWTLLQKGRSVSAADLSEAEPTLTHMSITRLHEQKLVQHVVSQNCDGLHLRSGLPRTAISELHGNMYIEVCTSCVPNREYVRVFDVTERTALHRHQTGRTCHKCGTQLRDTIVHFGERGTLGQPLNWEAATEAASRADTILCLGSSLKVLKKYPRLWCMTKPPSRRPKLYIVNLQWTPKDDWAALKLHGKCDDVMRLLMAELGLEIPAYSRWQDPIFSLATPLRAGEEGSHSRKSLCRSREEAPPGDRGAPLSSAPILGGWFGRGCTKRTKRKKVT
From the text: To assess SIRT7 deacetylase activity using Fluor de Lys (FDL) assays, the peptide […]∗QLAGGK was synthesized and characterized as a substrate using fluorophore 7-methoxycoumarin-4-acetic acid (∗, MCA) (Figures 1A, S1A, and S1B). In the presence of both SIRT7 and NAD^+, a luminescence response was detected in the linear range (y = 31.88x + 2396, R^2 = 0.9742) (Figure 1B). We screened our preserved library of 242 natural products to find potential SIRT7 inhibitors.
For in vitro analysis of SIRT7 deacetylation, the reaction system contained 10 μg His-SIRT7, 0.5 mM NAD^+, 10 μM […](MCA)QLAGGK (synthesized by QYAOBIO; details in the supplementary files), 50 μM potential compound or 3 mM NAM, and assay buffer (10 mM Tris-HCl pH 8.0, 4 mM MgCl2, 0.2 mM DTT and 10% Glycerol). The deacetylation reactions were incubated at 37°C for 90 min. The fluorescence intensity was measured with a microplate reader (Synergy H4 Hybrid Reader, Biotek) at an excitation wavelength of 260 nm and detected at an emission spectrum of 300–600 nm. The IC50 values were calculated at 450 nm emission by GraphPad Prism 8.

SIRT1 = biological target: T2, SIRT1 (Homo sapiens, UniProt Q96EB6); test: Protein thermal shift assay; format: binding; details: 10 μM
T2 construct: GST-SIRT1-193-741; GST; purchased Active Motif 7846-50; host or cells: E. coli
T2 sequence (Q96EB6 193-741): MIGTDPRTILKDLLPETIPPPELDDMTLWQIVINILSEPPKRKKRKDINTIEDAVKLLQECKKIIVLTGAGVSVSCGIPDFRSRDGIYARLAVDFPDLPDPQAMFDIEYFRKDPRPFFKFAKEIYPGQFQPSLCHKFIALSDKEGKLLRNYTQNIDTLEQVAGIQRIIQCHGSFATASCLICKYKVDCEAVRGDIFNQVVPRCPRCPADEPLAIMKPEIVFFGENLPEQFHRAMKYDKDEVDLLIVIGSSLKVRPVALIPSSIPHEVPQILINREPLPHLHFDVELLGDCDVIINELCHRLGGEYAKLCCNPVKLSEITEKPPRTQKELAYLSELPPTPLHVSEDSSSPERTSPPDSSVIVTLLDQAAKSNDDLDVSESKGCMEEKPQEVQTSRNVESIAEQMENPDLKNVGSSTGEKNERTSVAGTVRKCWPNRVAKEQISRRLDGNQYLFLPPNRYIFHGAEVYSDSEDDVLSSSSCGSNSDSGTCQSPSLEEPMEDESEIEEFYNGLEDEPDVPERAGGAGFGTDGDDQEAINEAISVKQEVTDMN
Experimental: (§1) The mixture containing SIRT1, SIRT6 or SIRT7 proteins, SYPRO Orange, compounds and buffer (100 mM Tris-HCl, 40 mM NaCl, 10 mM MgCl2, pH=7.4) were added into 0.2 mL PCR tubes for a total volume of 20 μL and placed in an ABI ViiA 7 Real-time PCR System. The temperature ranging from 35.0 to 75.0°C was increased at a rate of 0.5°C/s and the fluorescence intensity was monitored in the ROX channel.

SIRT6 = SIRT6 (Homo sapiens, UniProt Q8N6T7); test: Protein thermal shift assay; format: binding; details: 10 μM
Experimental: as §1

SIRT7 [2] = biological target: T1, SIRT7; test: Protein thermal shift assay; format: binding; details: 10 μM
Experimental: as §1

SIRT7 [3] = biological target: T1, SIRT7; test: Cellular thermal shift assay in HCT116 cell lysates; format: binding; details: 20 μM
Experimental: Cellular thermal shift assays were performed according to previously reported methods with some modifications.[66] Briefly, HCT116 cells were lysed with RIPA buffer and incubated with 20 μM YZL-51N or DMSO for 1 h on ice. Subsequently, cell lysates were divided into 70 μL aliquots and heated individually at different temperatures for 4 min following by cooling on ice. The heated lysates were centrifuged, and 50 μL supernatants were taken for SDS-PAGE and immunoblotting analysis with the indicated antibodies.

HCT116 xenograft = HCT116 xenograft model; format: in vivo, BALB/c nude mice
Experimental: For the xenograft models, HCT116 cells (5 x 10^6 in 100 μL of PBS) were inoculated subcutaneously into the dorsal flank of the 4-week-old male BALB/c nude mice. The mice were randomly divided into control, drug treatment, IR treatment and combination treatment groups. Control group was injected with PBS. Drug treatment group was treated with 15 mg/kg YZL-51N every 3 d. In IR treatment group, the tumor site was irradiated with 3 Gy every 3 d. The combination group was treated with both 15 mg/kg YZL-51N and 3 Gy IR. The tumor size was estimated from the measurement of the longest diameter across the tumor and the corresponding perpendicular diameter. Tumor volumes were assessed on indicated days by a caliper and calculated using the formula: volume = (length x width[2])/2.

Chain of SIRT6 (Q8N6T7 whole entry): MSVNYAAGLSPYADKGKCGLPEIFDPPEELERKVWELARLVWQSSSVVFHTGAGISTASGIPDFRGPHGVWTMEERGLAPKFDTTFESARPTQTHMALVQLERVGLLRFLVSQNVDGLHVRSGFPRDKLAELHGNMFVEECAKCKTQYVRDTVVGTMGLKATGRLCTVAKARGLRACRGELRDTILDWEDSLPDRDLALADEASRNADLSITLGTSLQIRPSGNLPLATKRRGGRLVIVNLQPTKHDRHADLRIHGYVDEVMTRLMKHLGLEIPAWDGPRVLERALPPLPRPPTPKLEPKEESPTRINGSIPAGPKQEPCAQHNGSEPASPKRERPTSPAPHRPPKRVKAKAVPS

`COC(=O)/C(=C\C(=O)c1ccc(O)c(O)c1)c1ccc(O)c(O)c1` [YZL-51N] was tested, and the inhibition at 50 µM (SIRT7 [1]; 50 μM compound, 37°C, 90 min) was 71.1%, the IC50 (SIRT7 [1]; 0.5 mM NAD+, 10 μM peptide, read-out: FDL assay SIRT7 inhibition IC50) was 12.7 µM and the “Shift in the melting curve” value (SIRT1) was 0.45 °C. The “Shift in the melting curve” value (SIRT6) was 1.0 °C, the “Shift in the melting curve” value (SIRT7 [2]) was 2.86 °C and the “Shift in the melting curve” value (SIRT7 [3]) was 5.2 °C. For the same compound, the “Tumor therapy, co-treatment with IR” value (HCT116 xenograft; 15 mg/kg YZL-51N and 3 Gy IR every 3 days) was “more effective” and the Tumor volume (HCT116 xenograft; 15 mg/kg every 3 days, alone) was “reduction on the tumor volume”.
